Source: publication PMC8078834 (FASEB journal : official publication of the Federation of …, 2021)

Molecular target: myeloperoxidase (MPO) (Homo sapiens, UniProt P05164)
Test: microscale thermophoresis
Assay type: binding

Sequence of myeloperoxidase (MPO) (P05164 165-273): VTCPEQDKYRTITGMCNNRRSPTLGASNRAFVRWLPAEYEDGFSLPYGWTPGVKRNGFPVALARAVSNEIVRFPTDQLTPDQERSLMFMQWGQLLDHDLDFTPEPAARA
Sequence of myeloperoxidase (MPO) (P05164 279-745): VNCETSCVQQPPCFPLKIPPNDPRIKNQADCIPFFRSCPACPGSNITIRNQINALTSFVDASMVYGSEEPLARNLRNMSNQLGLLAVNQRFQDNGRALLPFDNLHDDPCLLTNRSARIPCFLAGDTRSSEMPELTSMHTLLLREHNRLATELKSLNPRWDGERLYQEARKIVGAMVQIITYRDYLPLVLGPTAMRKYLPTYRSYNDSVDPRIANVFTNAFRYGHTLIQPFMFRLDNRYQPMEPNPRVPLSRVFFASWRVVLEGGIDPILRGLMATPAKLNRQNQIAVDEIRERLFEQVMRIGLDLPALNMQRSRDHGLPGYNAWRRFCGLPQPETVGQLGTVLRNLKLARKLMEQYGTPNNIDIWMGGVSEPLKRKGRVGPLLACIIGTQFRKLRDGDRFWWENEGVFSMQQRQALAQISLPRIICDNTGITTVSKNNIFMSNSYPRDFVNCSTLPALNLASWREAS

With c1ccc2[nH]ccc2c1 [indole, 1H-indole] as the molecule, how does the Kd read?
Its Kd is 272 ± 77.4 µM.
